Assay results from ChEMBL document CHEMBL1201862, “PubChem BioAssay data set” (2004).
Activity calls are given as the source filed them.

Legend:
[1] = target: T1, Alkaline phosphatase, tissue-nonspecific isozyme (Homo sapiens, UniProt P05186); experiment: human TNAP enzyme inhibitors, SAR follow-up, biochemical, luminescent, dose response (AID 1056)
T1 sequence (P05186 whole entry): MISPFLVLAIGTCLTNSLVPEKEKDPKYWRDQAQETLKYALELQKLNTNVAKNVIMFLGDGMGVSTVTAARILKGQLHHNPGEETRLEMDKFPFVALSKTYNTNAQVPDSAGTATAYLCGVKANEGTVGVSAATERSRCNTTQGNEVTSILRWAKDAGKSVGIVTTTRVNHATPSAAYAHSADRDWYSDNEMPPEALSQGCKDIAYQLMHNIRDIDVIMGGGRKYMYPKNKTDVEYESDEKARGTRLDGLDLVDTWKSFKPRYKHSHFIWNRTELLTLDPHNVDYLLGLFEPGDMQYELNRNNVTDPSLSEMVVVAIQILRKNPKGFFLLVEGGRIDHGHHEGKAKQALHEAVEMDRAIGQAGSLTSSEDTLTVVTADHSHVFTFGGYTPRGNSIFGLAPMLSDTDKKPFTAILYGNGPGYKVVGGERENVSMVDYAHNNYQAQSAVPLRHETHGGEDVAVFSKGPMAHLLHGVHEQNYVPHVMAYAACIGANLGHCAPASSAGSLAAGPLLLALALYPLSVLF

[2] = target: Glyceraldehyde-3-phosphate dehydrogenase (Homo sapiens, UniProt P04406)
Glyceraldehyde-3-phosphate dehydrogenase, sequence (P04406 whole entry): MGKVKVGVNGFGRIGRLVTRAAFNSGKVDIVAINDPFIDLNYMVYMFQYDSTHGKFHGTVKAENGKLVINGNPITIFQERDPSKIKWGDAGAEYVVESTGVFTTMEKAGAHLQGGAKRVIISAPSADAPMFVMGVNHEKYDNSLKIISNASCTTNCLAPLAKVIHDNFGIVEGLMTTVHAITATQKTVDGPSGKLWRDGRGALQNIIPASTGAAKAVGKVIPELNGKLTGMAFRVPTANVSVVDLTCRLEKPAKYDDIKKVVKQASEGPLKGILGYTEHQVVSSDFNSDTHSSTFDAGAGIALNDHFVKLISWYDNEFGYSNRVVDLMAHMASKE

[3] = target: Eukaryotic translation initiation factor 4E (Mus musculus, UniProt P63073); experiment: eIF4E–eIF4G protein interaction inhibitors, dose response, biochemical, TR-FRET (AID 855); assay type: functional;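 also: potency for disrupting eIF4E binding to eIF4GI seen as loss of FRET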
Eukaryotic translation initiation factor 4E, sequence (P63073 whole entry): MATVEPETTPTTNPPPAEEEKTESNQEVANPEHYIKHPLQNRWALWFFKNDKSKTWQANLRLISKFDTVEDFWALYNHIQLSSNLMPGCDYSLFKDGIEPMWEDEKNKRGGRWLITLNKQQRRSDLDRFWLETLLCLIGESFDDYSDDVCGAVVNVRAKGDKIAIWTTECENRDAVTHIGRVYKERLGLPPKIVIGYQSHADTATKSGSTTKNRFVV

[4] = target: T2, Calpain-2 catalytic subunit (Sus scrofa, UniProt P43367); experiment: pig calpain II inhibitor potency, dose response, biochemical, fluorogenic peptide substrate (AID 1420); assay type: functional
T2 sequence (P43367 whole entry): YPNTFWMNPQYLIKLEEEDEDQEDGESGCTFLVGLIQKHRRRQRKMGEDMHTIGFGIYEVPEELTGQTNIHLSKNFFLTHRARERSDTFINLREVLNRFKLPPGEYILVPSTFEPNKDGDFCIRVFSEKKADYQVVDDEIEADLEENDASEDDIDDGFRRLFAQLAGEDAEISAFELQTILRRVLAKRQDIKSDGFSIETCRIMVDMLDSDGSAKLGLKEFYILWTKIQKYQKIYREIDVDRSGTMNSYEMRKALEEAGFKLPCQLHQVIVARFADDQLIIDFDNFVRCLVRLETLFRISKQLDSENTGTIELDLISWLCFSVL

[5] = target: T3, Tyrosine-protein phosphatase non-receptor type 22 (Homo sapiens, UniProt Q9Y2R2); assay type: functional
T3 sequence (Q9Y2R2 whole entry): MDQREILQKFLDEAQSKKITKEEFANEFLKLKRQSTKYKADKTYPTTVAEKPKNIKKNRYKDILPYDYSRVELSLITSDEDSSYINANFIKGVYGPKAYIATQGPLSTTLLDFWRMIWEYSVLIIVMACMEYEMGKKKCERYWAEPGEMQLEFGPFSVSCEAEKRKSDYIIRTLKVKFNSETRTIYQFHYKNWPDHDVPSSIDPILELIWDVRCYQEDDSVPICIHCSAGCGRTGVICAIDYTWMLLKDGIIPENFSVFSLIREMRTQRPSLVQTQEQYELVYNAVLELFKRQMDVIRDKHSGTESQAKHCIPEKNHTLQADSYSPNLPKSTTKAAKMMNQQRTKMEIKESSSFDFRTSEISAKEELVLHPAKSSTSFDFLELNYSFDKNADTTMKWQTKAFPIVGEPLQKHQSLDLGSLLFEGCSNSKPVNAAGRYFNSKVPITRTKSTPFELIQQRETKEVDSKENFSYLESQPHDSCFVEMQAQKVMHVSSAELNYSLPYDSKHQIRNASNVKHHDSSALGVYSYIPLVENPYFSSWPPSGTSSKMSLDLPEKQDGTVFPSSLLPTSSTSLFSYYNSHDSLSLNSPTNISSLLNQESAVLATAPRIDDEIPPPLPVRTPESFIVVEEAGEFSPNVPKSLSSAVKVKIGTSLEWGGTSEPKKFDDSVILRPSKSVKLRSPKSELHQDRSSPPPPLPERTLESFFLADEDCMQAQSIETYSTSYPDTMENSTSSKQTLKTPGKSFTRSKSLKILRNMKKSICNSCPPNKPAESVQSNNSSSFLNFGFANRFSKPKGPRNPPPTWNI

[6] = target: T4, Tyrosine-protein phosphatase non-receptor type 7 (Homo sapiens, UniProt P35236); assay type: functional
T4 sequence (P35236 whole entry): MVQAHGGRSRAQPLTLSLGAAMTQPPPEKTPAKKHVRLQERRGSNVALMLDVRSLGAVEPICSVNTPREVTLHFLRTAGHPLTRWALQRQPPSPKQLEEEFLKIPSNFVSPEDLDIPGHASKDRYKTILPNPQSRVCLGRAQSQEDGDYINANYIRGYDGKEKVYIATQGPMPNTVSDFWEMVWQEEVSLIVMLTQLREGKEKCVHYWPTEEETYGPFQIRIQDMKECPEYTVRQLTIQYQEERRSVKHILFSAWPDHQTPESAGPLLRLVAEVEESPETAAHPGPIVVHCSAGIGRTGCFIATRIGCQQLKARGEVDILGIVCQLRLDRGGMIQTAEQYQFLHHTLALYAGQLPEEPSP

[7] = target: T3, Tyrosine-protein phosphatase non-receptor type 22; assay type: functional; remark: listed apart in the source
[8] = Vero E6 cell cytotoxicity, dose response, cytotoxicity control for non-replicating M. tuberculosis project, secondary assay (AID 492998); assay type: functional, VeroE6; settings: Vero C1008
Protein RecA = target: T5, Protein RecA (Mycobacterium tuberculosis, UniProt P9WHJ3); experiment: Fluorescence Cell-Free Homogeneous Dose Retest to Identify Inhibitors of RecA-Intein Splicing Activity. [Related pubchem assays (depositor defined):AID2097, AID2223, AID489010, AID492950]; assay type: functional
T5 sequence (P9WHJ3 whole entry): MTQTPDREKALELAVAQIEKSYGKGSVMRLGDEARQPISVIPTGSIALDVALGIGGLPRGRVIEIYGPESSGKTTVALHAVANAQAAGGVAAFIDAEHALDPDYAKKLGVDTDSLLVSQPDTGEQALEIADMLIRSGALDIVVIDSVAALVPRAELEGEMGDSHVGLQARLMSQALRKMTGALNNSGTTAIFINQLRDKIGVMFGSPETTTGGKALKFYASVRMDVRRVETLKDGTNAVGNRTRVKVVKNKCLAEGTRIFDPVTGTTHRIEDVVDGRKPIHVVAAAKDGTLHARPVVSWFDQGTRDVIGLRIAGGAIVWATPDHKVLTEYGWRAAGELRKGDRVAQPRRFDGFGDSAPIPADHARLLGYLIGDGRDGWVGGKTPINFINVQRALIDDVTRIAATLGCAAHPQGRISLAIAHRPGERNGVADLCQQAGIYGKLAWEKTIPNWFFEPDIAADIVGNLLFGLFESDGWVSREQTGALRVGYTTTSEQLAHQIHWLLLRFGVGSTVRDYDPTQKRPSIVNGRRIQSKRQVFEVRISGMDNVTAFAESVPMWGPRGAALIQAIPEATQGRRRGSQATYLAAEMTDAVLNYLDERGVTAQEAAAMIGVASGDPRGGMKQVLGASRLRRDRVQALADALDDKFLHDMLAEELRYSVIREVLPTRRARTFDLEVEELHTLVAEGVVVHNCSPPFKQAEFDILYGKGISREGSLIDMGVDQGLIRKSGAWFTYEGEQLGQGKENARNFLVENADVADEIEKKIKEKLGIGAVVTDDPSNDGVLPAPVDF

[9] = THP-1 cell cytotoxicity, dose response, cytotoxicity control for non-replicating M. tuberculosis project (AID 489025); assay type: functional
cells = assay type: functional
[10] = HepG2 cell cytotoxicity, dose response, cytotoxicity control for non-replicating M. tuberculosis project (AID 489018); assay type: functional; settings: Mycobacterium tuberculosis
[11] = target: T6, Replicative DNA helicase DnaB (Mycobacterium tuberculosis, UniProt P9WMR3); experiment: DnaB intein splicing inhibitors, dose response, biochemical, cell-free fluorescence (AID 449749); assay type: functional
T6 sequence (P9WMR3 whole entry): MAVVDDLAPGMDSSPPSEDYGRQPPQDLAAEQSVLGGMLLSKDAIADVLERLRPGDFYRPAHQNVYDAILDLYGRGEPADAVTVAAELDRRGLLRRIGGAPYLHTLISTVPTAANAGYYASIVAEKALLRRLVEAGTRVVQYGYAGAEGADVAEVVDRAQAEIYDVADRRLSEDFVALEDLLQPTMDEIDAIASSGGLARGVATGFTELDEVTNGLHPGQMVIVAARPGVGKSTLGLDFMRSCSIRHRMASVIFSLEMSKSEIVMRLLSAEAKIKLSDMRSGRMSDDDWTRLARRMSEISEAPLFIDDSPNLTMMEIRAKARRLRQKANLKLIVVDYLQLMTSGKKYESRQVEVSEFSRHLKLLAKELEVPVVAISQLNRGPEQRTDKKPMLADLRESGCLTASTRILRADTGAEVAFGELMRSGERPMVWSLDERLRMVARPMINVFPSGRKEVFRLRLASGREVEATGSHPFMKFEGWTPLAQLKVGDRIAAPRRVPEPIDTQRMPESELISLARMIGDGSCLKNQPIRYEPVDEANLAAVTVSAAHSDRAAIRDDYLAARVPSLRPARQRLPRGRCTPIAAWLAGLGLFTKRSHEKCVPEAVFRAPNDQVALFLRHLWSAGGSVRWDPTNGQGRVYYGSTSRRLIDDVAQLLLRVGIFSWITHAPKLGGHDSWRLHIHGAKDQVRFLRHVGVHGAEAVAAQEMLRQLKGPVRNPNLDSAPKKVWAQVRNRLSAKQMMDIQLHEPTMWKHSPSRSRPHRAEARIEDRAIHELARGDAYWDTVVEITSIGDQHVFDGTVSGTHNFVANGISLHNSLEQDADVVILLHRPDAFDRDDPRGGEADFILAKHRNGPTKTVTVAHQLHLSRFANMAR

[12] = inhibitors of intracellular T. cruzi replication, confirmation, NIH3T3 host cells, beta-gal luminescence (AID 2044); assay type: functional, cell-based;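 also: intracellular parasites grown in NIH/3T3 mouse fibroblasts as host cells; luminescent beta-galactosidase reporter signal from transgenic T. cruzi replicating inside host cells; inhibitors lower the luminescence signal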
[13] = insulin promoter down-regulators in MIN6 cells, imaging, high-content screening, mouse beta cells (AID 1628); assay type: functional
[14] = cytotoxicity toward NIH3T3 fibroblasts, dose response, counter-screen, cell-based, ATP luminescence, mouse fibroblasts (AID 2010); assay type: functional;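 also: cells exposed to compound for about 90 hours before reading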
[15] = cytotoxicity in MIN6 insulinoma cells, dose response, cytotoxicity control, cell-based, mouse insulinoma (AID 2122); assay type: functional;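 also: confirmatory high-throughput counterscreen run to flag cytotoxic compounds; mouse MIN-6 beta cells carrying an insulin promoter eGFP reporter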

SMILES: CCCCOc1ccc(-c2cc(C(=O)OC)[nH]n2)cc1
- IC50 [1]: 0.912 µM (active)
- IC50 [2]: > 100 µM (not active)

SMILES: Fc1c(F)c(C(F)(F)F)c(F)c(F)c1N1CCN(c2ccc3nnc(C(F)(F)F)n3n2)CC1
- IC50 [3]: > 64 µM (inactive)
- IC50 [4]: 3.07 µM (not active)

SMILES: COc1ccccc1N1CCN(C(=O)C2CCN(C(=O)c3ccccc3Cl)CC2)CC1
- IC50 [5]: > 79.4 µM (inactive)
- IC50 [6]: > 79.4 µM (inactive)
- IC50 [7]: > 79.4 µM (inactive)

SMILES: Cn1cnc([N+](=O)[O-])c1S(=O)(=O)c1cccc(Cl)c1
- CC50 [8]: 8.33 µM (active)
- EC50 (Protein RecA): 15.8 µM (active)
- CC50 [9]: 15.5 µM (active)
- IC50 (cells): 5.88 µM (active)
- CC50 [10]: 13 µM (active)
- AC50 [11]: 27.7 µM (active)

SMILES: Cc1cc(C)n(-c2nc(NCCC(C)C)c3c4c(sc3n2)COC(C)(C)C4)n1
- EC50 [12]: 1.64 µM (active)
- IC50 [13]: 3.09 µM (active)
- EC50 [14]: > 60 µM (not active)
- IC50 [15]: 2.26 µM (active)
